Results published in ChEMBL document CHEMBL1142498 (J Med Chem, 2008).

Legend:
[1] = target: T1, 5-hydroxytryptamine receptor 1A (Homo sapiens, UniProt P08908)
T1 sequence (P08908 whole entry): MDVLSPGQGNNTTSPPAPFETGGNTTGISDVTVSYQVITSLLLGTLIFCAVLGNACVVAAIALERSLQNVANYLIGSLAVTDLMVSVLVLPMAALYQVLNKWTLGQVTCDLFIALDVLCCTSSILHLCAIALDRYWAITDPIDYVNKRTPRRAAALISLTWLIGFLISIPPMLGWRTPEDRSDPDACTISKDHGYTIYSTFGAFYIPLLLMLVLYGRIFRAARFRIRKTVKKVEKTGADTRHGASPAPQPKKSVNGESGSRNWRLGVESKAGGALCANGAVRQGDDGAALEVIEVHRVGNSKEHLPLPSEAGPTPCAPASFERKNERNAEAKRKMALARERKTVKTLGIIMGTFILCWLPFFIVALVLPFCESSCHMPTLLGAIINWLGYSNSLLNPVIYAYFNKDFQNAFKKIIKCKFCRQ
Description: Activity at human cloned 5HT1A receptor expressed in CHO cells assessed as blockade of 5-HT-stimulated [35S]GTPgammaS binding

[2] = species on record: Rattus norvegicus; experiment: Displacement of [3H]prazosin from alpha1 adrenergic receptor in Sprague-Dawley rat cortical membrane at 1 uM
[3] = target: T2, 5-hydroxytryptamine receptor 1A (Homo sapiens) (UniProt P08908); experiment: Displacement of [3H]8-OH-DPAT from human recombinant 5HT1A receptor expressed in CHO cells at 1uM; assay type: cell-based
T2 sequence (whole entry): T1 sequence (P08908 whole entry)

[4] = target: Sodium-dependent serotonin transporter (Homo sapiens, UniProt P31645); assay type: cell-based, JAR
Description: Inhibition of 5-HT transporter-mediated [3H]5HT uptake in human Jar cells

[5] = target: T1, 5-hydroxytryptamine receptor 1A; experiment: biochemical
[6] = target: Sodium-dependent serotonin transporter (Rattus norvegicus, UniProt P31652)
Sodium-dependent serotonin transporter (Rattus norvegicus, UniProt P31652), sequence (P31652 whole entry): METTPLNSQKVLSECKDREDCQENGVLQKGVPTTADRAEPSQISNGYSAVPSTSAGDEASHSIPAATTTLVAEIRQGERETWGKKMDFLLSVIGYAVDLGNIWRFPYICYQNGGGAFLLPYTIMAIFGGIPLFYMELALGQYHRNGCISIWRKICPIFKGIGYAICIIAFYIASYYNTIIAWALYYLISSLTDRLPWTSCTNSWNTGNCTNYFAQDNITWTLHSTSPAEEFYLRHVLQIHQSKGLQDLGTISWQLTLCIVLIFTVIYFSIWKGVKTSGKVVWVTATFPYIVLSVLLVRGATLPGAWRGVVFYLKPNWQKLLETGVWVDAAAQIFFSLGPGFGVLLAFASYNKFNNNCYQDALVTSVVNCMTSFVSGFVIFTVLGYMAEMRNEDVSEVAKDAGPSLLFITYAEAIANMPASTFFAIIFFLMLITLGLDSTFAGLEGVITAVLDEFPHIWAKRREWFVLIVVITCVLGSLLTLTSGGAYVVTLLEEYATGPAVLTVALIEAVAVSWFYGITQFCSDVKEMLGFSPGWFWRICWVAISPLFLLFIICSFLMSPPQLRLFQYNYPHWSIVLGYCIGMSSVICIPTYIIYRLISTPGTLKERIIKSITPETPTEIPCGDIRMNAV
Description: Displacement of [3H]paroxetine from serotonin transporter in Sprague-Dawley rat frontal cortical membrane

Sodium-dependent serotonin transporter (Homo sapiens, UniProt P31645), sequence (P31645 whole entry): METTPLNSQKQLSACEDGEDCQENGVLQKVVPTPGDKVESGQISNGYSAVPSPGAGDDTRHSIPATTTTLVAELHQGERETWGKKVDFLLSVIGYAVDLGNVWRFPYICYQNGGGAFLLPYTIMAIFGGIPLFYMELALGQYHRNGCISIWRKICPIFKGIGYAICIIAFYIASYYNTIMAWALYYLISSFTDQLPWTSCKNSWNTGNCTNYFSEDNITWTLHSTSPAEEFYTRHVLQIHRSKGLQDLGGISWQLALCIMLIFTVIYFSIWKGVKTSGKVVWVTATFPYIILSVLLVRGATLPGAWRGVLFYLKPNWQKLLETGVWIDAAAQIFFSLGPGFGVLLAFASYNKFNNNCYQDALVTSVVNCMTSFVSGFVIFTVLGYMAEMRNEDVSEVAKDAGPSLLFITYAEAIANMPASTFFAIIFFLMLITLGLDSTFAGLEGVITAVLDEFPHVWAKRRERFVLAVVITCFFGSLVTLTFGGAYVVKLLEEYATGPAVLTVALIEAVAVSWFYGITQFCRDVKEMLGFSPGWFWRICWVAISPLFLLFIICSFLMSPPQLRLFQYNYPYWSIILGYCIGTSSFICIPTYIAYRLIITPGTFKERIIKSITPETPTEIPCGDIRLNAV

SMILES | IC50 [1] [nM] | Activity [2] [%] | Activity [3] [%] | IC50 [4] [nM] | Ki [5] [nM] | Ki [6] [nM]
NC(=O)c1ccc(Cl)c2c1CC(N(CCCc1c[nH]c3ccc(F)cc13)C1CCC1)CO2 (single isomer, unassigned; (-)) | 125 |  |  | 61.4 | 10.9 | 1.98
CCCN(CCCc1c[nH]c2ccc(F)cc12)[C@H]1COc2c(F)ccc(C(=O)NC)c2C1 | 752 | 39 |  | 47 | 2.64 | 11.3
CCCN(CCCc1c[nH]c2ccc(F)cc12)C1COc2c(F)ccc(OC)c2C1 (configuration not stated) |  |  |  | 442 | 19.4 | 12.5
CNC(=O)c1ccc(F)c2c1C[C@@H](N(CCCc1c[nH]c3ccc(F)cc13)C1CCC1)CO2 | 262 | 0 |  | 147 | 1.32 | 10.2

Now from value to compound, other results behind:

IC50 [1] [nM] | Activity [2] [%] | Activity [3] [%] | IC50 [4] [nM] | SMILES | Ki [5] [nM] | Ki [6] [nM]
> 2000 | 8 | 4 | 1030 | O=C(O)c1ccc(F)c2c1CC(N(CCCc1c[nH]c3ccc(F)cc13)C1CCC1)CO2 (configuration not stated) |  | 
195 |  |  | 24.1 | N#Cc1ccc2[nH]cc(CCCN(C3CCC3)C3COc4c(F)ccc(C(N)=O)c4C3)c2c1 (single isomer, unassigned; (-)) | 1.98 | 2.44
1000 |  |  | 10.1 | N#Cc1ccc2[nH]cc(CCCN(C3CCC3)C3COc4c(F)ccc(C(N)=O)c4C3)c2c1 (single isomer, unassigned; (+)) | 258 | 9.05
 | 31 |  | 146 | CCCN(CCCc1c[nH]c2ccc(F)cc12)[C@H]1COc2cccc(C(N)=O)c2C1 | 0.93 | 23.4
> 1000 | 21 | 44 | 144 | O=C(NC1CCCCC1)c1ccc(F)c2c1CC(N(CCCc1c[nH]c3ccc(F)cc13)C1CCC1)CO2 (configuration not stated) |  | 
